Assay results as given in US20240399118A1, “INTRALUMINAL LOCAL DRUG DELIVERY” (Isola Therapeutics, Inc., priority 2023, published 2024).
Where two headings read alike, the source gives them in different places.

What was measured:
[1] = cited from earlier work
porcine model = settings: pig, in vivo
Method: Animals tested were of the porcine species from the breed Yorkshire Cross. The animals underwent surgery to place two (2) CVL catheters, 1 for infusion and 1 for plasma collection. Each animal received ˜1 L of lavage solution. The animals were allowed to recover and stabilize. Once the animals were awake and mobile, the animals were infused with 50 mcg/mL for 30 minutes.

[2] = Plasma concentration of diclofenac after local lavage delivery to the lungs in a porcine model (LC/MS); format: in vivo, porcine (Yorkshire Cross)
Excerpt: Each animal received ˜1 L of lavage solution. The animals were allowed to recover and stabilize. […] Spectra were compared to the validated protocol and standard curve generated for the study.

In the case of `O=C(O)Cc1ccccc1Nc1c(Cl)cccc1Cl` [Diclofenac sodium], the “solubility in water (in words)” value ([1]; water at 25° C.) is given as “sparingly soluble”.

In the case of `C[C@@H]1C[C@H]2[C@@H]3CCC4=CC(=O)C=C[C@]4(C)[C@@]3(F)[C@@H](O)C[C@]2(C)[C@@]1(O)C(=O)COP(=O)([O-])[O-].[Na+].[Na+]` [Dexamethasone sodium phosphate, disodium; [2-[(8S,9R,10S,11S,13S,14S,16R, 17R)-9-fluoro-11,17-dihydroxy-10,13,16-trimethyl-3-oxo-6,7,8, 11, 12, 14, 15, 16-octahydrocyclopenta[a]phenanthren-17-yl]-2-oxoethyl] phosphate], the tolerability (porcine model) is given as “well tolerated”, the solubility in water ([1]; water) is given as 100 to 1000 mg/mL and the “solubility in water (in words)” value ([1]; water) is given as “freely soluble”.

For `O=C(O)Cc1ccccc1Nc1c(Cl)cccc1Cl` [Diclofenac, 2-[2-(2,6-dichloroanilino)phenyl]acetic acid], the “time of peak plasma concentration post-lung infusion” value ([2]; local lung delivery at 50 mcg/mL) was 5 min, the “plasma Cmax as percent of the plasma Cmax resulting from systemic administration” value ([2]; local vs systemic administration) was “less than 0.05%” and the “Plasma Concentration (ng/mL) by Time (min): 5 min” value ([2]; swine, local lung administration 50 mcg/mL, 5 min, animal 24P0133) was 3430 ng/mL. The “Plasma Concentration (ng/mL) by Time (min): 15 min” value ([2]; swine, local lung administration 50 mcg/mL, 15 min, animal 24P0133) was 3050 ng/mL, the “Plasma Concentration (ng/mL) by Time (min): 30 min” value ([2]; swine, local lung administration 50 mcg/mL, 30 min, animal 24P0133) was 2410 ng/mL and the “Plasma Concentration (ng/mL) by Time (min): 0 min” value ([2]; swine, local lung administration 50 mcg/mL, ~1 L lavage solution, 0 min (baseline), animal 24P0133) was “BLQ”. For the same compound, the adverse events (porcine model) was “did not have any adverse events”, the clinical observations (porcine model) was “no abnormal clinical observations” and the lung tissue damage (porcine model) was “no signs of lung tissue damage”.
